How the values were obtained:
[1] = target: T1, PSMA-expressing LNCaP cells (Homo sapiens, UniProt Q04609); assay: Internalization assay (membrane bound and internalized Th-227); assay type: cell-based; settings: 10 nM radiolabeled compound, Th-227 at 375 kBq/nmol, triplicates
T1 construct: PSMA-expressing LNCaP cells; endogenous in cells; host or cells: LNCaP
Procedure: For internalization assays 24 well plates (#3526, Corning) were coated with 200 μl Poly-L-Lysine (0.1 mg/ml, #3438-100-01, Fa. Cultrex) per well for 2 h at 37° C. […] Cells were incubated at 37° C. and 5% CO2 over night. On the following day 400 μl of the media were removed and a total of 200 μl growth medium added supplemented with PSMA-SMOLs labeled with Th-227 at 375 kBq/nmol in triplicates. Radiochemical purity of the labeling was analyzed by instant thin layer chromatography and found to be above 70% for all compounds used. The final concentration of radiolabeled SMOLs was in the test wells was 10 nM. Cells were incubated for 30 min or 2 h. After the incubation time supernatants were taken off and cells washed with PBS. Thereafter cells were washed twice with 0.2 ml 50 mM Glycine-HCl buffer (#55097, Sigma Aldrich) and once with PBS and the washing solutions combined in counting vials (#TK75-018, Fa. Corning) and subjected to gamma counting (1470 Wizard automatic gamma counter, Wallac). The resulting counts were attributed to membrane bound radioactivity. Cells were then lysed with 500 μl 0.3N NaOH (#181691.1211, Fa. PanReac AppliChem ITW Reagents) followed by another wash with 500 μl PBS. The NaOH lysate as well as the final wash were combined in vials and subjected to gamma counting as described above. Measured radioactivity was attributed to internalized fraction. Results were calculated as fmol of Th-227 per/10^cells in the membrane bound and internalized fractions from triplicate values.

[2] = Biodistribution study in LNCaP tumor-bearing mice (Th227 counted in organs); assay type: in vivo, SCID mice
Procedure, shortened: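 SCID mice bearing testosterone pellets and subcutaneous LNCaP flank tumors (~50 mm^2) received a single intravenous dose of the radioactive compound. At set time points, n=3 animals were sacrificed, and organs were removed, weighed and counted for Th227 on a Germanium detector.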

[3] = 0.25 h, 500 kBq/kg, study b2999

T1 sequence (Q04609 whole entry): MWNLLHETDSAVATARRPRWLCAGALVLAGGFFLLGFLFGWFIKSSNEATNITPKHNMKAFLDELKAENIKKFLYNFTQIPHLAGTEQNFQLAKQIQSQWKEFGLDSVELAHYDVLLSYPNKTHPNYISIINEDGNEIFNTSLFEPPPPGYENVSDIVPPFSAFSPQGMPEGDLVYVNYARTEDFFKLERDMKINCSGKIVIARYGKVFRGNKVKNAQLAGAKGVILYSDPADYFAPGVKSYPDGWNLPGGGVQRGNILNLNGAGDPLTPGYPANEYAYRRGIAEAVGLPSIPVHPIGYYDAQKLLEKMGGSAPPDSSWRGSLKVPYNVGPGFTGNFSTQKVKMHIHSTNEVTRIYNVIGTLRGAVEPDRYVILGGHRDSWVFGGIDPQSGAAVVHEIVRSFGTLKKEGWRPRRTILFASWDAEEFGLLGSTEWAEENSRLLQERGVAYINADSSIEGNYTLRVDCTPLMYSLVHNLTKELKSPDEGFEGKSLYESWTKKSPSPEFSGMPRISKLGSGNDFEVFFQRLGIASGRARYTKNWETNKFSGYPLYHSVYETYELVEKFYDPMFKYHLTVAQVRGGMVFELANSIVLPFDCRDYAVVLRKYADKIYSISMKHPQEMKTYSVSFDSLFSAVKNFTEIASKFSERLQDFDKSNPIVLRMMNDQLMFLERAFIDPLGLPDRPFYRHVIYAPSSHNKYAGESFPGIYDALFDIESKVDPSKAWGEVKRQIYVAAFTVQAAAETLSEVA

**Q.** Which results are given for `O=C([O-])CN1CCN(CC(=O)[O-])CCN(CC(=O)NCC2CCC(C(=O)NC(Cc3ccc4ccccc4c3)C(=O)NCCCCC(NC(=O)NC(CCC(=O)O)C(=O)O)C(=O)O)CC2)CCN(CC(=O)[O-])CC1.[227Th+4]` [Example 1-B-227Th, [^227Th]Thorium (3S,10S,14S)-3-[(naphthalen-2-yl)methyl]-1,4,12-trioxo-1-{(1r,4S)-4-[(2-{4,7,10-tris[(carboxy-kappaO)methyl]-1,4,7,10-tetraazacyclododecan-1-yl-kappa^4N^1,N^4,N^7,N^10}acetamido)methyl]cyclohexyl}-2,5,11,13-tetraazahexadecane-10,14,16-tricarboxylate]?
**A.** Internalized in LNCaP fmol/10^6 cells 30 min ([1]; 30 min incubation): 55 fmol/10^6 cells; Membrane bound in LNCaP fmol/10^6 cells 30 min ([1]; 30 min incubation): 237 fmol/10^6 cells; Internalized in LNCaP fmol/10^6 cells 2 h ([1]; 2 h incubation): 189 fmol/10^6 cells; Membrane bound in LNCaP fmol/10^6 cells 2 h ([1]; 2 h incubation): 438 fmol/10^6 cells; Th-227 in Blood [2, 3]: 1.68 % ID Th-227/g organ; Th-227 in Femur and tibia [2, 3]: 1.31 % ID Th-227/g organ; Th-227 in Kidneys [2, 3]: 114.94 % ID Th-227/g organ; Th-227 in Liver [2, 3]: 0.92 % ID Th-227/g organ; Th-227 in Salivary gland [2, 3]: 10.22 % ID Th-227/g organ; Th-227 in Spleen [2, 3]: 6.51 % ID Th-227/g organ; Th-227 in Tumor [2, 3]: 8.41 % ID Th-227/g organ; Th-227 in prostate [2, 3]: 8.53 % ID Th-227/g organ; Th-227 in Blood ([2]; 0.25 h, 1500 kBq/kg): 6.68% ID Th-227/g organ; Th-227 in Liver ([2]; 0.25 h, 1500 kBq/kg): 2.01% ID Th-227/g organ; Th-227 in Spleen ([2]; 0.25 h, 1500 kBq/kg): 11.41% ID Th-227/g organ; Th-227 in Tumor ([2]; 0.25 h, 1500 kBq/kg): 6.89% ID Th-227/g organ; Th-227 in bone ([2]; 0.25 h, 1500 kBq/kg): 2.42% ID Th-227/g organ; Th-227 in brain ([2]; 0.25 h, 1500 kBq/kg): 0.27% ID Th-227/g organ; Th-227 in kidney ([2]; 0.25 h, 1500 kBq/kg): 36.39% ID Th-227/g organ; Th-227 in large intestine ([2]; 0.25 h, 1500 kBq/kg): 1.08% ID Th-227/g organ; Th-227 in lung ([2]; 0.25 h, 1500 kBq/kg): 4.42% ID Th-227/g organ; Th-227 in muscle ([2]; 0.25 h, 1500 kBq/kg): 1.06% ID Th-227/g organ; Th-227 in prostate ([2]; 0.25 h, 1500 kBq/kg): 7.80% ID Th-227/g organ; Th-227 in salivary glands ([2]; 0.25 h, 1500 kBq/kg): 2.81% ID Th-227/g organ; Th-227 in small intestine ([2]; 0.25 h, 1500 kBq/kg): 1.14% ID Th-227/g organ; Th-227 in Blood ([2]; 1 hr, 500 kBq/kg, study b2999): 0.37 % ID Th-227/g organ; Th-227 in Femur and tibia ([2]; 1 hr, 500 kBq/kg, study b2999): 0.78 % ID Th-227/g organ; Th-227 in Kidneys ([2]; 1 hr, 500 kBq/kg, study b2999): 150.81 % ID Th-227/g organ; Th-227 in Liver ([2]; 1 hr, 500 kBq/kg, study b2999): 0.41 % ID Th-227/g organ; Th-227 in Salivary gland ([2]; 1 hr, 500 kBq/kg, study b2999): 17.15 % ID Th-227/g organ; Th-227 in Spleen ([2]; 1 hr, 500 kBq/kg, study b2999): 6.04 % ID Th-227/g organ; Th-227 in Tumor ([2]; 1 hr, 500 kBq/kg, study b2999): 10.87 % ID Th-227/g organ; Th-227 in prostate ([2]; 1 hr, 500 kBq/kg, study b2999): 9.05 % ID Th-227/g organ; Th-227 in Blood ([2]; 1 hr, 1500 kBq/kg): 3.85% ID Th-227/g organ; Th-227 in Liver ([2]; 1 hr, 1500 kBq/kg): 1.99% ID Th-227/g organ; Th-227 in Spleen ([2]; 1 hr, 1500 kBq/kg): 9.16% ID Th-227/g organ; Th-227 in Tumor ([2]; 1 hr, 1500 kBq/kg): 7.34% ID Th-227/g organ; Th-227 in bone ([2]; 1 hr, 1500 kBq/kg): 5.16% ID Th-227/g organ; Th-227 in brain ([2]; 1 hr, 1500 kBq/kg): 0.07% ID Th-227/g organ; Th-227 in kidney ([2]; 1 hr, 1500 kBq/kg): 38.11% ID Th-227/g organ; Th-227 in large intestine ([2]; 1 hr, 1500 kBq/kg): 0.57% ID Th-227/g organ; Th-227 in lung ([2]; 1 hr, 1500 kBq/kg): 2.88% ID Th-227/g organ; Th-227 in muscle ([2]; 1 hr, 1500 kBq/kg): 0.76% ID Th-227/g organ; Th-227 in prostate ([2]; 1 hr, 1500 kBq/kg): 1.15% ID Th-227/g organ; Th-227 in salivary glands ([2]; 1 hr, 1500 kBq/kg): 1.62% ID Th-227/g organ; Th-227 in small intestine ([2]; 1 hr, 1500 kBq/kg): 0.84% ID Th-227/g organ; Th-227 in Blood ([2]; 4 hr, 1500 kBq/kg): 1.05% ID Th-227/g organ; Th-227 in Liver ([2]; 4 hr, 1500 kBq/kg): 1.32% ID Th-227/g organ; Th-227 in Spleen ([2]; 4 hr, 1500 kBq/kg): 6.17% ID Th-227/g organ; Th-227 in Tumor ([2]; 4 hr, 1500 kBq/kg): 13.09% ID Th-227/g organ; Th-227 in bone ([2]; 4 hr, 1500 kBq/kg): 7.25% ID Th-227/g organ; Th-227 in brain ([2]; 4 hr, 1500 kBq/kg): 0.04% ID Th-227/g organ; Th-227 in kidney ([2]; 4 hr, 1500 kBq/kg): 32.13% ID Th-227/g organ; Th-227 in large intestine ([2]; 4 hr, 1500 kBq/kg): 0.76% ID Th-227/g organ; Th-227 in lung ([2]; 4 hr, 1500 kBq/kg): 1.55% ID Th-227/g organ; Th-227 in muscle ([2]; 4 hr, 1500 kBq/kg): 0.37% ID Th-227/g organ; Th-227 in prostate ([2]; 4 hr, 1500 kBq/kg): 1.06% ID Th-227/g organ; Th-227 in salivary glands ([2]; 4 hr, 1500 kBq/kg): 0.72% ID Th-227/g organ; Th-227 in small intestine ([2]; 4 hr, 1500 kBq/kg): 0.74% ID Th-227/g organ; Th-227 in Blood ([2]; 6 hr, 500 kBq/kg, study b2999): 0.06 % ID Th-227/g organ; Th-227 in Femur and tibia ([2]; 6 hr, 500 kBq/kg, study b2999): 0.31 % ID Th-227/g organ; Th-227 in Kidneys ([2]; 6 hr, 500 kBq/kg, study b2999): 67.34 % ID Th-227/g organ

Source: patent US20230072421A1, “TARGETED RADIOPHARMACEUTICALS FOR THE DIAGNOSIS AND TREATMENT OF PROSTATE CANCER” (Bayer AS, priority 2019, published 2023)
